Several values for one entry are separate records, joined by “and”; a condition that tells them apart may be missing. Identical values can stand only once. Each block holds one molecule with its values, some of them ahead of it. Activity calls are given as the source filed them.
What was measured:
Caspase-6 = target: T1, Caspase-6 (Homo sapiens, UniProt P55212); test: human caspase-6 inhibitors, dose response, biochemical, VEID-R110 fluorescence, cherry-pick (AID 720632)
T1 sequence (P55212 whole entry): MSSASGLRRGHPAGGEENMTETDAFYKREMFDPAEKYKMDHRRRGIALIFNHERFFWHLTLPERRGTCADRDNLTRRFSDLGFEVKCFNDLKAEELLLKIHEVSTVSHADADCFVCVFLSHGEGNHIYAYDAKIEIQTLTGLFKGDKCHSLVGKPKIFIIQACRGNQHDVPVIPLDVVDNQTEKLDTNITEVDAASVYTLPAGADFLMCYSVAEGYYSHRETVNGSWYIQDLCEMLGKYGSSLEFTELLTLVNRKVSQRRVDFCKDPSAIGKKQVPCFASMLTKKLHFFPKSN

[1] = target: T2, Mannose-6-phosphate isomerase (Homo sapiens, UniProt P34949); test: inhibitors of human PMI, primary screen, biochemical, fluorescence intensity, coupled assay (AID 1209)
T2 sequence (P34949 whole entry): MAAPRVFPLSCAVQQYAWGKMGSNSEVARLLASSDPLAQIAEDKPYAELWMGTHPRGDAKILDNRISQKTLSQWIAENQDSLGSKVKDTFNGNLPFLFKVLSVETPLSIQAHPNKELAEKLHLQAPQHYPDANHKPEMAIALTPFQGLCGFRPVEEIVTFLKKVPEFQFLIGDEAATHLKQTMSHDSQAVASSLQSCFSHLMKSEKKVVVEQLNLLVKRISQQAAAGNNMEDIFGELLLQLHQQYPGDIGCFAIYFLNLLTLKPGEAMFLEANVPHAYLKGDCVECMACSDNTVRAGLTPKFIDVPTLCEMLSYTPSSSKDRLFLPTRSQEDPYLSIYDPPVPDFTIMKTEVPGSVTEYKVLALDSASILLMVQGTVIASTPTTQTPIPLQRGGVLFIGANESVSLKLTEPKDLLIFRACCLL

[2] = target: T3, Sentrin-specific protease 8 (Homo sapiens, UniProt Q96LD8); test: SENP8 protease inhibitors, SAR follow-up, biochemical, luminescence (AID 504501); format: functional
T3 sequence (Q96LD8 whole entry): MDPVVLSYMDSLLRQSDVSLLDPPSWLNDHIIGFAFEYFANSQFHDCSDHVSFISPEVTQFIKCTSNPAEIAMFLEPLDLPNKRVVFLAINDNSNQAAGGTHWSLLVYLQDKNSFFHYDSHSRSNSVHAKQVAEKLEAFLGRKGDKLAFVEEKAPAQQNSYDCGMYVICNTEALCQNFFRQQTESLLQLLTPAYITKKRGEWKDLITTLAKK

[3] = target: Intestinal-type alkaline phosphatase (Homo sapiens, UniProt P09923); test: activation of human intestinal alkaline phosphatase – biochemical, dose response (AID 488873); format: functional
[4] = target: T4, Sentrin-specific protease 7 (Homo sapiens, UniProt Q9BQF6); test: SENP7 protease inhibitors, SAR follow-up, biochemical, luminescence (AID 504497); format: functional
T4 sequence (Q9BQF6 whole entry): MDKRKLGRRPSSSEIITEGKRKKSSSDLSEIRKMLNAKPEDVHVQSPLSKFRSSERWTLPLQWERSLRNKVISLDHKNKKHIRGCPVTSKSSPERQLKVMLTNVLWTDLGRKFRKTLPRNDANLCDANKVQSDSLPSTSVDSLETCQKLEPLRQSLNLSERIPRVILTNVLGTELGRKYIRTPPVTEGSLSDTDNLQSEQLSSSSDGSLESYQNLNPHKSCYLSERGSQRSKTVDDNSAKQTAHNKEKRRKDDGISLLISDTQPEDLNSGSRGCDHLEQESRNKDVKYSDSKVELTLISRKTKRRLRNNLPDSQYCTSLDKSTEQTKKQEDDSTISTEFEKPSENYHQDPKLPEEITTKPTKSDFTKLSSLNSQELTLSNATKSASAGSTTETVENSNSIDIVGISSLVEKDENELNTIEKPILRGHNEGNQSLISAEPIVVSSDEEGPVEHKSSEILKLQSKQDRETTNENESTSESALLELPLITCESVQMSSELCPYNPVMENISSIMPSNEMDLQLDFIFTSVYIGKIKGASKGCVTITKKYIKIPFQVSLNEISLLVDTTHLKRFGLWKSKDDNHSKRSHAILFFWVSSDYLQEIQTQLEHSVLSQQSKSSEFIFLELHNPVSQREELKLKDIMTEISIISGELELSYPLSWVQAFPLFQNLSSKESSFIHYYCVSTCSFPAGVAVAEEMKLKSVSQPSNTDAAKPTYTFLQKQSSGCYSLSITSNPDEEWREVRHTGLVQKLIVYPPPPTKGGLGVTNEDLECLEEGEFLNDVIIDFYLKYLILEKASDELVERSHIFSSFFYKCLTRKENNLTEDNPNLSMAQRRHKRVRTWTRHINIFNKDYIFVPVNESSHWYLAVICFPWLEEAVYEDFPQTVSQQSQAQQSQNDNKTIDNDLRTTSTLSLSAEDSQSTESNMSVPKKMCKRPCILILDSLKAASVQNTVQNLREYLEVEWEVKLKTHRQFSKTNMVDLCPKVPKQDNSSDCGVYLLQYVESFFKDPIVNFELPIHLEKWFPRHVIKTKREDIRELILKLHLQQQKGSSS

[5] = cytotoxicity toward HT-29 cells – cell-based, CellTiter-Glo luminescence, IC50, dose response (AID 1117330); format: functional
[6] = target: T5, Rac GTPase-activating protein 1 (Homo sapiens, UniProt Q9H0H5); test: MgcRacGAP GTPase-activating activity inhibitors, confirmation, biochemical, ADP Hunter fluorescence, primary and confirmatory (AID 624330); format: functional
T5 sequence (Q9H0H5 whole entry): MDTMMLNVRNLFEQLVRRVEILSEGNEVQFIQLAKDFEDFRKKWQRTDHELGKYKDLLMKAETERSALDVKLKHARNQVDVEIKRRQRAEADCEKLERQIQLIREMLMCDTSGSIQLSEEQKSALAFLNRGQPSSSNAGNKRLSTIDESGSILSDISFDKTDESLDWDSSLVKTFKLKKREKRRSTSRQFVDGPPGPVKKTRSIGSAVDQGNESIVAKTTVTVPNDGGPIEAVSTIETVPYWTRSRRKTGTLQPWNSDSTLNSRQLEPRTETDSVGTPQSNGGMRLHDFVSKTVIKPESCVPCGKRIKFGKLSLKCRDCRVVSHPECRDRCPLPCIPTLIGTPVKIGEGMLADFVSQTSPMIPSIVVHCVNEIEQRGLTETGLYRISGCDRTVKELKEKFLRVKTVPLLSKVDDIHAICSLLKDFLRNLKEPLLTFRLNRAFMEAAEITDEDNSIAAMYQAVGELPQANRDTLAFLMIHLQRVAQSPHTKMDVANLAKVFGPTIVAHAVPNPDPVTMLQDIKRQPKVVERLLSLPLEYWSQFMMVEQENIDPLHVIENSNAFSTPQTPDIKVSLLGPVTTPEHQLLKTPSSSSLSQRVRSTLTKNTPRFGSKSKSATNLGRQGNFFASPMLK

BJ = test: cells; format: functional, cell-based; details: Homo sapiens
[7] = Concentration-dependent survival of SW480 colon cancer line, luminescence detection with CellTiter-Glo, half-maximal inhibitory concentration (AID 1117338); format: functional

Sequence of Intestinal-type alkaline phosphatase (P09923 whole entry): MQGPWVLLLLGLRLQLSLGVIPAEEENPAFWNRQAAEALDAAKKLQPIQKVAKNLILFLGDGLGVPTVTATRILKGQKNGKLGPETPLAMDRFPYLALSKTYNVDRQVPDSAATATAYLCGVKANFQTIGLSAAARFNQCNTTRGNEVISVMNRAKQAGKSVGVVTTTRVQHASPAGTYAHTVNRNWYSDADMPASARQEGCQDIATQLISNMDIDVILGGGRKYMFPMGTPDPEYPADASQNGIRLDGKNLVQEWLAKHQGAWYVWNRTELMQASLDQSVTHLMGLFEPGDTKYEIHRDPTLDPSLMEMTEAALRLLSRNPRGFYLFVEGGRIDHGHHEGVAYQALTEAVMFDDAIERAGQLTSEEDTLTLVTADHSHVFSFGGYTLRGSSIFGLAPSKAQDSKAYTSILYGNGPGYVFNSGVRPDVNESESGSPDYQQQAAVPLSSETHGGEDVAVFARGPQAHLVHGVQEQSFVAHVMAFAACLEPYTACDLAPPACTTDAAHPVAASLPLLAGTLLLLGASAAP

AC50 (Caspase-6): 16.9 µM (active)
Compound: CCCOc1cc2c(C#N)c(N3CCCC3)nc(N)c2c(N)n1

IC50 [1]: > 50 µM (not active)
EC50 [3]: > 100 µM (inactive)
IC50 [4]: 58.1 µM (active) and 39.7 µM (active)
Compound: Oc1ccc(/C=N/Nc2cc(N3CCCC3)nc(N3CCCC3)n2)cc1O
IC50 [2]: > 99 µM (inactive)

Compound: Cc1cc2nc3ccc(N(C)C)cc3[s+]c2cc1N [TOLONIUM CHLORIDE]
IC50 [5]: 5.06 µM (inactive)
IC50 [6]: 32.4 µM (active)
EC50 (BJ): 7.39 µM (active)
IC50 [7]: 1.4 µM (active)

— ChEMBL document CHEMBL1201862, “PubChem BioAssay data set” (2004)
